One assay has as its system 3T3/IGF-1R cells. Kind of assay: IGF-1 Receptor Growth Assay (3T3/IGF-1R). It is filed as cell-based. The protocol:
IGF-1 Receptor Growth Assay
3T3/IGF-1 R (10% FBS/2 mM glutamine/DMEM)
Cell Plating--Trypsinize and count 3T3/IGF-1R and NIH 3T3 c7 cells. Dilute in growth media to 2000 cells/200 μl and seed flat bottom 96-well plates with 200 μl/well, one plate for two compounds for each cell line.
Compound preparation--Add DMSO to each compound to make 100 mM stock solutions.
Aliquot each compound to 3-4 sterile screw cap tubes and store at -20° C. After thawing, make sure the compound has gone completely back into solution. Throw away after 3 freeze/thaws.
3T3/IGF-1R cells--For each 96-well plate, make 15 ml of 10 nM IGF-1/0.5% FBS/2 mM glutamine/DMEM (30 μl of 5 μM IGF-1/15 ml).
Aliquot 1.5 ml 10 nM IGF-1/0.5% FBS to a sterile tube for each compound to be tested (the first time a compound is tested, use a 15 ml tube in case it is necessary to add extra medium to get it into solution).
Add 3 μl of 100 mM stock of each compound to a tube so 200 μM final. Shake or vortex until it goes into solution. If it is necessary to add additional medium, note the final concentration.
For the DMSO control, prepare 0.5 ml/plate of 0.2% DMSO/10 nM IGF-1/0.5% FBS (2 μl DMSO/ml).
For every two compounds, aliquot 130 μl 10 nM IGF-1/0.5% FBS to wells in columns 2-11 of a 96-well round bottom plate.
Add 260 μl of each compound to four wells in column 12.
Do 2-fold dilutions (130 μl) from columns 12 to 3 on each plate (column 2 will be for the untreated control), mixing thoroughly.
Remove medium from 3T3/IGF-1 R cells, one plate at a time.
Transfer 120 μl from each well on a compound dilution plate to the corresponding well of cells.
Add 120 μl 0.2% DMSO/10 nM IGF-1/0.5% FBS to four wells in column 1.
Add 120 μl 0.5% FBS (without IGF-1) to other four wells in column 1 for negative control.
Refeed--Repeat steps above, adding exactly the same IGF-1 and compound concentration to each well as before.
Analysis of cells--Look at wells with the highest concentrations for each compound to make sure it has not precipitated.
Detection--Follow the steps for fixing and staining described in the SOP for SRB Assays.
Data analysis--Find averages and standard deviations for each set of four OD's.
Using wells in column 2 (treated with IGF-1 but not compound) as 100%, calculate percent of control for each concentration of compound.
Determine the fold difference between the IGF-1-treated and untreated cells. It should be 2-3-fold.
Determine the percent of control for 0.2% DMSO.
Use a curve fit method to graph percent of control vs. log(molar concentration) and determine the IC50.

The target of another assay is T1, Insulin Receptor (Homo sapiens, UniProt P06213).
T1 construct: expressed in transfected cells; host or cells: H25 (NIH3T3 line overexpressing Insulin Receptor)
Kind of assay: Cellular Insulin Receptor ELISA. The assay is classed as cell-based. The following applies: H25 cells, 100 nM insulin; read-out: ELISA DATA: IR. Here is the method: Cellular Insulin Receptor ELISA (Version I)
The following protocol describes the cell line, reagents and procedures used to measure phosphotyrosine level on Insulin Receptor, which indicates Insulin Receptor tyrosine kinase activity.
MATERIALS AND REAGENTS (1). The cell line used in this assay is H25 (ATCC #CRL 8017), an NIH3T3 cell line which overexpresses Insulin Receptor.
(2). H25 cells are grown in an incubator with 5% CO2 at 37° C. The growth media is DMEM+10% FBS (heat inactivated)+2 mM L-Glutamine.
(3). For ELISA plate coating, the monoclonal anti-IR antibody named BBE is used. Antibodies are purified by the Enzymology Lab, SUGEN, Inc.
(1). The cells, grown in tissue culture dish (10 cm, Corning 25020-100) to 80-90% confluence, are harvested with Trypsin-EDTA (0.25%, 0.5 ml/D-100, GIBCO).
(2). Resuspend the cells in fresh DMEM+10% FBS+2 mM L-Glutamine, and transfer to 96-well tissue culture plate (Coming, 25806-96) at 20,000 cells/well (100 ul/well). Incubate for 1 day then replace medium to 0.01% serum medium (90/ul) and incubate in 5% CO2 and 37° C. overnight.
(1). Coat the ELISA plate (Corning 25805-96) with Anti-IR Antibody at 0.5 ug/well in 100 ul PBS at least 2 hours.
(2). Remove the coating solution, and replace with 100 ul Blocking Buffer, and shake for 30 minutes. Remove the blocking buffer and wash the plate just before adding lysate.
(1). The drugs are tested in serum-free condition.
(2). Dilute drug stock (in 100% DMSO) 1:10 with DMEM in 96-well poly-propylene plate, and transfer 10 ul/well of this solution to the cells to achieve final drug dilution 1:100, and final DMSO concentration of 1.0%. Incubate the cells in 5% CO2 at 37° C. for 2 hours.
(3). Prepare fresh cell lysis buffer (HNTG*) HNTG 2 ml EDTA 0.1 ml Na3VO4 0.1 ml Na4P2O7 0.1 ml H20 7.3 ml HNTG* 10 ml.
(4). After drug incubation for two hours, transfer 10 ul/well of 1 μM Insulin in PBS to the cells (Final Conc=100 nM), and incubate at 5% CO2 at 37° C. for 10 minutes.
(5). Remove media and add 100 ul/well HNTG* and shake for 10 minutes. Look at cells under microscope to see if they are adequately lysed.
(6). Use a 12-channel pipette to scrape the cells from the plate, and homogenize the lysate by repeat aspiration and dispense. Transfer all the lysate to the antibody coated ELISA plate [V.2.(2)], and shake for 1 hour.
(7). Remove the lysate, wash the plate, transfer anti-pTyr (1:3,000 with TBST) 100 ul/well, and shake for 30 minutes.
(8). Remove anti-pTyr, wash the plate, transfer detection antibody (1:3,000 with TBST) 100 ul/well, and shake for 30 minutes.
(9). Remove detection antibody, wash the plate, and transfer fresh ABTS/H2O2 (1.2 ul H2O2 to 10 ml ABTS) 100 ul/well to the plate to start color development.
(An ELISA detects its analyte on a solid surface through an enzyme-linked reagent.)

Setting [1] is: read-out: Growth Data: 3T3/IGF-1R-0.5% FBS.
[2] abbreviates: read-out: Growth Data: 3T3/IGF-1R-10% FBS.

Like-named read-outs stand apart in the source and are kept apart here. Where only a bound is given, the exact number is not on record here.

T1 sequence (P06213 763-1382 limits assumed, species assumed): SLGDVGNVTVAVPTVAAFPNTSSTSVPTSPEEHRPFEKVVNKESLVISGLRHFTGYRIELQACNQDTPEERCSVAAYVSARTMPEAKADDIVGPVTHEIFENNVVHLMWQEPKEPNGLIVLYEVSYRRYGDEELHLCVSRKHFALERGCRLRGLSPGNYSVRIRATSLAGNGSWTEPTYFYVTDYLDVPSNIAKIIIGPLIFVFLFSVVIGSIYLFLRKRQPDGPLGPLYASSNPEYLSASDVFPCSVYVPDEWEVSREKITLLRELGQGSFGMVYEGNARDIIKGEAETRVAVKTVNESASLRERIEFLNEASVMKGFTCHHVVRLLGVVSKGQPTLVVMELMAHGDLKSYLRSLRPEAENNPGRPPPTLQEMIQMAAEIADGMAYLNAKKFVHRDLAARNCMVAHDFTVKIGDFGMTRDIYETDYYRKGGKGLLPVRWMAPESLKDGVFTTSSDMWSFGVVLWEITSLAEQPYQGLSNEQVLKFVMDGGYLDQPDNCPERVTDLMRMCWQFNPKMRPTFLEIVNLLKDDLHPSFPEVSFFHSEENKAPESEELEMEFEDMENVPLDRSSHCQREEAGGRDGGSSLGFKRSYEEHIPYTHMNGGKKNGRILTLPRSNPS
T1 sequence (P06213 28-758 partner limits assumed, species assumed): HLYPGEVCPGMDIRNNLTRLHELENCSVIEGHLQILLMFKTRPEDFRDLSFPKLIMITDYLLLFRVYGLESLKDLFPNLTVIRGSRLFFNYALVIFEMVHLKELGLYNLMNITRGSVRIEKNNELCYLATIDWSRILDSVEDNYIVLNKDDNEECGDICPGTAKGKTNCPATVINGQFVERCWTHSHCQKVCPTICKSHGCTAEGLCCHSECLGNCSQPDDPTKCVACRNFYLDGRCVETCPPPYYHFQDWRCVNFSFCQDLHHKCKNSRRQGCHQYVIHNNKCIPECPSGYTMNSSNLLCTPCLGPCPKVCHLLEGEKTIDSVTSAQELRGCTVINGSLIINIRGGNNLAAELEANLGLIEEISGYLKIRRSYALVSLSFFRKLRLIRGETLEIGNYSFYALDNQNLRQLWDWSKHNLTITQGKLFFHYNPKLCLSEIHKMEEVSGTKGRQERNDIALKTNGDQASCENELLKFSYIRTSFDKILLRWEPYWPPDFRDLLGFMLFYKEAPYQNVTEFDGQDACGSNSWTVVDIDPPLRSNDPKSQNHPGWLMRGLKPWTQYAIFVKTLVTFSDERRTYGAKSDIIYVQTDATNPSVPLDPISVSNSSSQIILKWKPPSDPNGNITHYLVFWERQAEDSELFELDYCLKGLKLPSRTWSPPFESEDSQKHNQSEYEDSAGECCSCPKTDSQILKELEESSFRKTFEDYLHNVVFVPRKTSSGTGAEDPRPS

In the case of `CC(C)c1cc(/C=C(\C#N)S(=O)(=O)NCc2ccccc2)cc(C(C)C)c1O` [Compound 732], the IC50 is 9.2 µM with 3T3/IGF-1R cells (setting [1]), 79 µM in the assay on 3T3/IGF-1R cells (setting [2]) and 8.8 µM on Insulin Receptor.

`CC(C)c1cc(/C=C(\C#N)S(=O)(=O)c2ccc(F)cc2)cc(C(C)C)c1O` [Compound 741, (E)-3-(3,5-Diisopropyl-4-hydroxyphenyl)-2-(4-fluorophenylsulfonyl)acrylonitrile]: the IC50 in the assay on 3T3/IGF-1R cells (setting [1]) is 35 µM; in the assay on 3T3/IGF-1R cells (setting [2]), 91 µM; on Insulin Receptor, 9.2 µM.

Regarding `N#C/C(=C\c1ccc(O)cc1Cl)S(=O)(=O)NCc1ccccc1` [Compound 733], the IC50 on Insulin Receptor is greater than 100 µM.

Consider `CC(C)c1cc(/C=C(\C#N)S(=O)(=O)/C(C#N)=C/c2cc(C(C)C)c(O)c(C(C)C)c2)cc(C(C)C)c1O` [Compound 745], for which, on Insulin Receptor, the IC50 was determined as 27 µM.

For the molecule `N#C/C(=C\c1ccc(O)cc1Cl)S(=O)(=O)NCCCc1ccccc1` [Compound 734], on Insulin Receptor, the IC50 was 51 µM.

For `CC(C)c1cc(/C=C(\C#N)S(=O)(=O)c2ccccc2)cc(C(C)C)c1O` [Compound 731], the IC50 turned out to be 25 µM in the assay with 3T3/IGF-1R cells (setting [1]), 92 µM with 3T3/IGF-1R cells (setting [2]) and 12 µM at Insulin Receptor.

In the case of `CC(C)c1cc(/C=C(\C#N)S(=O)(=O)Cc2cccc(C(F)(F)F)c2)cc(C(C)C)c1O` [Compound 736], the IC50 in the assay on 3T3/IGF-1R cells (setting [1]) is 14.7 µM; in the assay on 3T3/IGF-1R cells (setting [2]), 74 µM; on Insulin Receptor, 15.1 µM.

Values taken from US5891917A, “Certain acrylonitrile-sulfonamide derivatives” (Sugen, Inc., priority 1997, dated 1999).
